In paper PMC13077286, “Potentiation of the antimycobacterial activity of bedaquiline, clofazimine, and doxycycline against Mycobacterium smegmatis by several natural product-based compounds is putatively via efflux inhibition” (Open Research Africa, 2026):
Where a name gives a salt, the structure may show the parent alone. Read-outs that look alike come from different tables or passages of the source.

How the values were obtained:
[1] = test system: Mycobacterium smegmatis (Msm) strain ATCC 607; assay: Two-dimensional checkerboard assay incorporating resazurin (REMA MIC) against Msm; format: cell-based; conditions: for MIC / MIC99: compound tested singly, read-out: MIC 99 singly; for MIC 99 fold reduction of anti-TB drug BDQ: BDQ in combination with the labelled EI; for MIC 99 fold reduction of anti-TB drug DOX: DOX in combination with the labelled EI; for FICI: synergy FICI ≤ 0.5; for MIC 99 fold reduction of anti-TB drug CFZ: CFZ in combination with the labelled EI
[2] = MTT cytotoxicity assay on Vero E6 cells; format: cell-based, African green monkey; conditions: African green monkey
Experimental: (§1) To determine the cytotoxicity of the compounds, Vero E6 cells (derived from the African green monkey kidney cells) were used and the MTT assay was performed as described by [Mosmann (1983)]. The Vero E6 cells were sourced from the American Type Culture Collection (ATCC, Manassas, Virginia, USA). The cells were maintained in Eagle’s Minimum Essential Medium (EMEM) supplemented with 10% fetal bovine serum (FBS; […] Panasonic, Japan) until 80% confluency was achieved, after which they were sub-cultured for cytotoxicity evaluation. At 80% confluency, cells were washed with phosphate-buffered saline (PBS; […] Trypsin activity was neutralized by adding supplemented EMEM. Cells were stained with trypan blue (Loba Chemie, India) and counted using a hemocytometer, and the cell suspensions were adjusted with supplemented EMEM to a final density of 1 × 10 ^5 cells/mL. […] After 24 hrs, the culture medium was replaced with fresh treatment medium with dose dilutions. […] After 48 hrs incubation, the media was removed, and the cells were rinsed with PBS (Sigma-Aldrich, USA). Fresh EMEM supplemented with MTT dye (5 mg […]/mL in PBS; Solarbio, China) was added and incubated for 4 hrs. The MTT solution was then discarded, and formazan crystals were completely dissolved with 100 μL of 100% DMSO (Finar Chemicals, India). Absorbance readings were taken at 570 nm using a microplate reader (Thermo Fisher Scientific, USA). All experiments were performed with three technical replicates. Cell viability (%) was determined using the formula: Cell viability(%)=[Absorbance of treated cells/Absorbance of untreated cells]×100 […]

Vero E6 cells = assay: MTT cytotoxicity assay on Vero E6 cells; format: cell-based, African green monkey
Experimental: as §1

[3] = Mycolicibacterium smegmatis, ATCC607, Msm
[4] = Msm, labelled EI in combination with BDQ
[5] = Msm, labelled EI in combination with CFZ
[6] = Msm, labelled EI in combination with DOX
[7] = Vero E6 cells, 48 hrs exposure, MTT, read-out: CC 50

COc1nc2ccc(Br)cc2cc1[C@@H](c1ccccc1)[C@@](O)(CCN(C)C)c1cccc2ccccc12 [BDQ, bedaquiline fumarate]
MIC ([1]; Msm): 0.39 µM
FIC (anti-TB drug) ([1]; Msm, in combination with BER): 0.102
MIC 99 combination (anti-TB drug) ([1]; Msm, in combination with BER): 0.04 µM
MIC 99 combination (anti-TB drug) ([1]; Msm, in combination with LYO): 0.09 µM
FIC (anti-TB drug) ([1]; Msm, in combination with LYO-3): 0.05
MIC 99 combination (anti-TB drug) ([1]; Msm, in combination with LYO-3): 0.04 µM
FIC (anti-TB drug) ([1]; Msm, in combination with PIP): 1
MIC 99 combination (anti-TB drug) ([1]; Msm, in combination with PIP): 0.78 µM
FIC (anti-TB drug) ([1]; Msm, in combination with RES): 0.5
MIC 99 combination (anti-TB drug) ([1]; Msm, in combination with RES): 0.39 µM
MIC99 [1, 3]: 0.78 µM

COc1ccc2cc3[n+](cc2c1OC)CCc1cc2c(cc1-3)OCO2 [BER, Berberine chloride]
MIC 99 fold reduction of anti-TB drug BDQ ([1]; Msm): 10 fold
MIC 99 fold reduction of anti-TB drug DOX ([1]; Msm): 16 fold
FIC (EI) ([1]; Msm, in combination with BDQ): 0.125
MIC 99 combination (EI) ([1]; Msm, in combination with BDQ): 27.62 µM
MIC 99 combination (EI) ([1]; Msm, in combination with CFZ): 53.99 µM
MIC 99 combination (EI) ([1]; Msm, in combination with DOX): 53.99 µM
FICI [1, 4]: 0.23
FICI [1, 5]: 2
FICI [1, 6]: 0.31
MIC [1, 3]: 221 µM
MIC99 [1, 3]: 110 µM
CC50 at 48 h [2]: 362 µM

CC(C)/N=c1\cc2n(-c3ccc(Cl)cc3)c3ccccc3nc-2cc1Nc1ccc(Cl)cc1 [CFZ, clofazimine]
FIC (anti-TB drug) ([1]; Msm, in combination with BER): 1
MIC 99 combination (anti-TB drug) ([1]; Msm, in combination with BER): 0.08 µM
FIC (anti-TB drug) ([1]; Msm, in combination with LYO): 1
MIC 99 combination (anti-TB drug) ([1]; Msm, in combination with LYO): 0.08 µM
FIC (anti-TB drug) ([1]; Msm, in combination with LYO-3): 1
MIC 99 combination (anti-TB drug) ([1]; Msm, in combination with LYO-3): 0.08 µM
FIC (anti-TB drug) ([1]; Msm, in combination with PIP): 0.12
MIC 99 combination (anti-TB drug) ([1]; Msm, in combination with PIP): 0.01 µM
FIC (anti-TB drug) ([1]; Msm, in combination with RES): 0.25
MIC 99 combination (anti-TB drug) ([1]; Msm, in combination with RES): 0.02 µM
MIC99 [1, 3]: 0.08 µM

C[C@H]1c2cccc(O)c2C(=O)C2=C(O)[C@]3(O)C(=O)C(C(N)=O)=C(O)[C@@H](N(C)C)[C@@H]3[C@@H](O)[C@@H]21 [DOX, doxycycline hyclate]
FIC (anti-TB drug) ([1]; Msm, in combination with BER): 0.063
MIC 99 combination (anti-TB drug) ([1]; Msm, in combination with BER): 2.25 µM
FIC (anti-TB drug) ([1]; Msm, in combination with LYO): 0.063
MIC 99 combination (anti-TB drug) ([1]; Msm, in combination with LYO): 2.25 µM
FIC (anti-TB drug) ([1]; Msm, in combination with LYO-3): 0.063
MIC 99 combination (anti-TB drug) ([1]; Msm, in combination with LYO-3): 2.25 µM
FIC (anti-TB drug) ([1]; Msm, in combination with PIP): 0.063
MIC 99 combination (anti-TB drug) ([1]; Msm, in combination with PIP): 2.25 µM
FIC (anti-TB drug) ([1]; Msm, in combination with RES): 0.031
MIC 99 combination (anti-TB drug) ([1]; Msm, in combination with RES): 1.12 µM
MIC99 [1, 3]: 36 µM

COc1cc(C2c3c(cc(OC)c(O)c3OC)CC(CO)C2CO)cc(OC)c1O (centres unmarked) [LYO, lyoniresinol]
MIC 99 fold reduction of anti-TB drug BDQ ([1]; Msm): 8 fold
MIC 99 fold reduction of anti-TB drug DOX ([1]; Msm): 16 fold
FIC (EI) ([1]; Msm, in combination with BDQ): 0.125
MIC 99 combination (EI) ([1]; Msm, in combination with BDQ): 25 µM
FIC (EI) ([1]; Msm, in combination with CFZ): 1
MIC 99 combination (EI) ([1]; Msm, in combination with CFZ): 200 µM
FIC (EI) ([1]; Msm, in combination with DOX): 0.125
MIC 99 combination (EI) ([1]; Msm, in combination with DOX): 25 µM
FICI [1, 4]: 0.18
FICI [1, 5]: 2
FICI [1, 6]: 0.19
MIC99 [1, 3]: 200 µM
CC50 at 48 h [2, 7]: 318 µM

COc1cc([C@H]2c3c(cc(OC)c(O)c3OC)C[C@@H](CO)[C@@H]2CO[C@@H]2O[C@H](CO)[C@@H](O)[C@H](O)[C@H]2O)cc(OC)c1O [LYO-3, (+)-lyoniresinol-3-Alpha-O-Beta-D-glucopyranoside]
MIC 99 fold reduction of anti-TB drug BDQ ([1]; Msm): 20 fold
MIC 99 fold reduction of anti-TB drug DOX ([1]; Msm): 16 fold
FIC (EI) ([1]; Msm, in combination with BDQ): 0.25
MIC 99 combination (EI) ([1]; Msm, in combination with BDQ): 24.99 µM
FIC (EI) ([1]; Msm, in combination with CFZ): 1
MIC 99 combination (EI) ([1]; Msm, in combination with CFZ): 99.99 µM
FIC (EI) ([1]; Msm, in combination with DOX): 0.25
MIC 99 combination (EI) ([1]; Msm, in combination with DOX): 25 µM
FICI [1, 4]: 0.3
FICI [1, 5]: 2
FICI [1, 6]: 0.21
MIC99 [1, 3]: 100 µM
CC50 at 48 h [2, 7]: 604 µM
viability at 48 h ([2]; Vero E6 cells, even at higher concentrations, read-out: Cell viability): > 50%

O=C(/C=C/C=C/c1ccc2c(c1)OCO2)N1CCCCC1 [PIP, piperine]
MIC 99 fold reduction of anti-TB drug CFZ ([1]; Msm): 8 fold
MIC 99 fold reduction of anti-TB drug DOX ([1]; Msm): 16 fold
FIC (EI) ([1]; Msm, in combination with BDQ): 1
MIC 99 combination (EI) ([1]; Msm, in combination with BDQ): 119.99 µM
FIC (EI) ([1]; Msm, in combination with CFZ): 0.25
MIC 99 combination (EI) ([1]; Msm, in combination with CFZ): 29.99 µM
FIC (EI) ([1]; Msm, in combination with DOX): 0.25
MIC 99 combination (EI) ([1]; Msm, in combination with DOX): 29.99 µM
FICI [1, 4]: 2
FICI [1, 5]: 0.37
MIC99 [1, 3]: 120 µM
CC50 at 48 h [2, 7]: 92.5 µM

COC(=O)[C@H]1[C@H]2C[C@@H]3c4[nH]c5cc(OC)ccc5c4CCN3C[C@H]2C[C@@H](OC(=O)c2cc(OC)c(OC)c(OC)c2)[C@@H]1OC [RES, reserpine]
MIC 99 fold reduction of anti-TB drug BDQ ([1]; Msm): 2 fold
MIC 99 fold reduction of anti-TB drug CFZ ([1]; Msm): 4 fold
MIC 99 fold reduction of anti-TB drug DOX ([1]; Msm): 32 fold
MIC 99 combination (EI) ([1]; Msm, in combination with BDQ): >2239.3 µM
MIC 99 combination (EI) ([1]; Msm, in combination with CFZ): >2239.3 µM
MIC [1, 3]: > 2240 µM
MIC99 [1, 3]: > 2240 µM
Cytotoxicity (in words) (Vero E6 cells): strong cytotoxicity at low micromolar concentrations
